Measured values taken from patent US20030013140A1, “Method of detecting ligand or ligand-like low-molecular weight compound” (priority 2000, published 2003).

Experiments:
Type in all cases: cell-based
[1] = target: T1, human G-CSF receptor (BAF/hGCSFR cell line) (Homo sapiens, UniProt Q99062); experiment: Cytoproliferative activity of the human G-CSF-dependent cell line BAF/hGCSFR (WST-1/1-methoxy PMS, 450 nm)
T1 construct: expressed in transfected cells; host or cells: BAF/B03 (mouse IL-3-dependent pro-B cell line), vector pIRESpuro
T1 sequence (Q99062 25-836): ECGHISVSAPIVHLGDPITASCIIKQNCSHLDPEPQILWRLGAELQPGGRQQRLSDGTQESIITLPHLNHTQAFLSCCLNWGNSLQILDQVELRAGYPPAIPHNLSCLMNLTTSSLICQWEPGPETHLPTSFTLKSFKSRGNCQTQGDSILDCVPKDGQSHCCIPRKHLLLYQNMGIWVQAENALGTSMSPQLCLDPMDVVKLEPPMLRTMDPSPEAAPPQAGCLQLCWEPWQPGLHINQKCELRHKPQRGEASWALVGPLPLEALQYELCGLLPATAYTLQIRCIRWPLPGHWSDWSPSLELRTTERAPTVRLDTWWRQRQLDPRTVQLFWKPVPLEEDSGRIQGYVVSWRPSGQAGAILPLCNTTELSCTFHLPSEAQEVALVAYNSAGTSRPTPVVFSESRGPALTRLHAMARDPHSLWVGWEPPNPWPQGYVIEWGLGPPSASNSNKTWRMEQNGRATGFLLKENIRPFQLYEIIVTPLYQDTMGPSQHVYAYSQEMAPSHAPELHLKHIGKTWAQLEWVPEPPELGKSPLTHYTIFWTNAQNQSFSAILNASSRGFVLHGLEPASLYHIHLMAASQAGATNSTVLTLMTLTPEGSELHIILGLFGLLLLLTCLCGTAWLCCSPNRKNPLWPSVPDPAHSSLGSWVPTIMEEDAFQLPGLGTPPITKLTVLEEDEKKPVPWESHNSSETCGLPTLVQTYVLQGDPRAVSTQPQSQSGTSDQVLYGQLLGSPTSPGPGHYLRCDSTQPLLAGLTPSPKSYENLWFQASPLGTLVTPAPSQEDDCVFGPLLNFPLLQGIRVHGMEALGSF
Protocol: Upon determining cytoproliferative activity, a cell line transfected with the human G-CSF receptor gene (BAF/hGCSFR) was recovered and, subsequent to its washing with PBS(−), was suspended in DMEM medium ((−)FCS). The cells were prepared at 5×10^4 cells/well on a 96-well plate. To the individual wells, rhG-CSF was added at 0, 0.025, 0.1, 0.4, 1.6 or 6.4 ng/mL, respectively, followed by incubation at 5% CO2 and 37° C. for 48 hours. Subsequent to the incubation, a WST-1/1-methoxy PMS solution (product of Dojindo Laboratories) was added to the individual wells (final concentration: 5 mM), and a staining reaction was then conducted in a CO2 incubator. After the reaction, measurement was conducted at a measurement wavelength of 450 nm.
(§1) With respect to the cell line (BAF/hGCSFR) obtained in Example 1 with the human G-CSF receptor gene introduced therein, effects which may be given to its screening by the existence of a reducing agent (2-mercaptoethanol) was investigated as will be described next. Firstly, two culture media were provided, one being a culture medium obtained by adding 2-mercaptoethanol at 5×10^−5 M to DMEM medium ((−)FCS) and the other consisting solely of DMEM medium ((−)FCS) without incorporation of the additives. […]

[2] = target: T2, human IL-10 receptor (BAF/hIL-10R cell line) (Homo sapiens, UniProt Q13651); experiment: Cytoproliferative activity of the human IL-10-dependent cell line BAF/hIL-10R (WST-1/1-methoxy PMS, 450 nm); conditions: 2-mercaptoethanol 5×10^-5 M vs medium alone; marked differences at rhIL-10 10, 100 and 1,000 ng/mL; FIG. 6
T2 construct: expressed in transfected cells; host or cells: BAF/B03 (mouse IL-3-dependent pro-B cell line), vector pIRESpuro
T2 sequence (Q13651 22-578): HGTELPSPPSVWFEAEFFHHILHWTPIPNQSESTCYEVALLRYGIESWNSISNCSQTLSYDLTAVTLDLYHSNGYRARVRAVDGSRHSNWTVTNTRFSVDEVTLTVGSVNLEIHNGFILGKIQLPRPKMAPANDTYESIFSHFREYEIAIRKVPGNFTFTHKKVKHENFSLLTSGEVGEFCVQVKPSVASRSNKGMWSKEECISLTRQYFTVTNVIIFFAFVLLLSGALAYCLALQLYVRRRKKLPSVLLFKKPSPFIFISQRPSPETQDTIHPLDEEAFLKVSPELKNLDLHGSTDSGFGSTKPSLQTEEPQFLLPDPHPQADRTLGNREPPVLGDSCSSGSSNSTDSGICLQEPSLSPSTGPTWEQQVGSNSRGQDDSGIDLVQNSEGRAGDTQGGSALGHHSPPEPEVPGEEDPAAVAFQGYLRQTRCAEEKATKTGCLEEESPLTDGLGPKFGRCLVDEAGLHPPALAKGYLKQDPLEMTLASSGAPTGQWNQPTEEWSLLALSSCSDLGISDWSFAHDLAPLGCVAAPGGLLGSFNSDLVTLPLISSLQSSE
T2 sequence (Q61190 20-349 partner): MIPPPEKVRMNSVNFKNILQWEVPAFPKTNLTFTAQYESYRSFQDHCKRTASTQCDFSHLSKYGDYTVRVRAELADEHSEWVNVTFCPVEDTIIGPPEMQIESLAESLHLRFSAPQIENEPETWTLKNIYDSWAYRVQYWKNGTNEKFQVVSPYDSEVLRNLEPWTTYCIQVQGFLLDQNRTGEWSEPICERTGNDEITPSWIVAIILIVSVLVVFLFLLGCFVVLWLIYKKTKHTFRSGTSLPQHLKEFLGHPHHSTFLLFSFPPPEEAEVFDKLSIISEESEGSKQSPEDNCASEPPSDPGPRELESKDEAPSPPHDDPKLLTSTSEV
Protocol: Upon determining cytoproliferative activity, a cell line transfected with the human IL-10 receptor gene (BAF/hIL-10R) was recovered and, subsequent to its washing with PBS(−), was suspended in DMEM medium ((−)FCS). The cells were prepared at 5×10^4 cells/well on a 96-well plate. To the individual wells, rhIL-10 was added at 0, 0.0001, 0.001, 0.01, 0.1, 1, 10, 100 or 1,000 ng/mL, respectively, followed by incubation at 5% CO2 and 37° C. for 48 hours. Subsequent to the incubation, the WST-1/1-methoxy PMS solution (product of Dojindo Laboratories) was added (final concentration: 5 mM), and a staining reaction was then conducted in a CO2 incubator. After the reaction, measurement was conducted at a measurement wavelength of 450 nm.
as §1, with “line (BAF/hIL-10R)” for “line (BAF/hGCSFR)”, “Example 2” for “Example 1”, “human IL-10” for “human G-CSF”, “without addition” for “without incorporation”, “the reducing agent.” for “the additives.”

[3] = target: T3, human EPO receptor (BAF/hEPOR cell line) (Homo sapiens, UniProt P19235); experiment: Cytoproliferative activity of the human EPO-dependent cell line BAF/hEPOR (WST-1/1-methoxy PMS, 450 nm); conditions: 2-mercaptoethanol 5×10^-5 M vs medium alone; FIG. 9
T3 construct: expressed in transfected cells; host or cells: BAF/B03 (mouse IL-3-dependent pro-B cell line), vector pIRESpuro; cDNA from a human erythroid leukemia cell line
T3 sequence (P19235 25-508): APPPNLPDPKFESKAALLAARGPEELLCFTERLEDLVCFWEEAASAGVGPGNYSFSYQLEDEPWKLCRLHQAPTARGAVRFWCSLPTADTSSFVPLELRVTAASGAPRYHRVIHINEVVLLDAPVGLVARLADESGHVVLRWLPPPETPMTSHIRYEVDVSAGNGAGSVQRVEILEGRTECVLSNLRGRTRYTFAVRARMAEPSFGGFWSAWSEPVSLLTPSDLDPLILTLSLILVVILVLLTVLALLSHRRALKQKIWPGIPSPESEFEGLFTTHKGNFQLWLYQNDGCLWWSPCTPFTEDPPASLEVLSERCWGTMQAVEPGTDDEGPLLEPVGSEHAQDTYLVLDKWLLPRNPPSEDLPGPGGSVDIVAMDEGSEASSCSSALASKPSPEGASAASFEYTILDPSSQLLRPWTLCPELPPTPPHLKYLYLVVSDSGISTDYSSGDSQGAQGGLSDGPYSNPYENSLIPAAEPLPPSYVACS
Protocol: Upon determining cytoproliferative activity, a cell line transfected with the human EPO receptor gene (BAF/hEPOR) was recovered and, subsequent to its washing with PBS(−), was suspended in DMEM medium ((−)FCS). The cells were prepared at 5×10^4 cells/well on a 96-well plate. […] Subsequent to the incubation, a WST-1/1-methoxy PMS solution (product of Dojindo Laboratories) was added to the individual wells (final concentration: 5 mM), and a staining reaction was then conducted in a CO2 incubator. After the reaction, measurement was conducted at a measurement wavelength of 450 nm.
With respect to the cell line (BAF/hEPOR) obtained in Example 8 with the human EPO receptor gene introduced therein, effects which may be given to its screening by the existence of a reducing agent (2-mercaptoethanol) was investigated as will be described next. Firstly, two culture media were provided, one being a culture medium obtained by adding 2-mercaptoethanol at 5×10^−5 M to DMEM medium ((−)FCS) and the other consisting solely of DMEM medium ((−)FCS) without addition of the reducing agent. Those culture media were poured into individual wells of 96-well plates, respectively, and BAF/hEPOR which had been washed with PBS(−) was suspended at 5×10^4 cells/well. […]

effect of reducing agent on cytoproliferation of BAF/hG-CSFR in the presence of rhG-CSF ([1]; 2-mercaptoethanol 5×10^-5 M vs medium alone, marked differences at rhG-CSF 0.1, 0.4, 1.6 and 6.4 ng/mL, FIG. 3) | effect of reducing agent on cytoproliferation of BAF/hIL-10R in the presence of rhIL-10 [2] | effect of reducing agent on cytoproliferation of BAF/hEPOR in the presence of rhEPO [3] | cytoproliferation of BAF/hG-CSFR in the presence of SB247464 on addition of WEHI sup to the culture medium ([1]; WEHIsup 1.25% with 2-mercaptoethanol 5×10^-5 M vs medium alone, SB247464 0 to 10^-6 M, marked differences at 10^-8, 10^-9 and 10^-10, FIG. 5) | SMILES
enhanced | enhanced | enhanced |  | OCCS [2-mepcaptoethanol, 2-mercaptoethanol]
 |  |  | enhanced | c1ccc(C23N=C(Nc4nc5ccccc5[nH]4)NC2(c2ccccn2)NC(Nc2nc4ccccc4[nH]2)=N3)nc1 (stereo not shown) [SB247464, reference compound]
